Laboratory results published in patent US20040058940A1, “Pharmaceutical formulation comprising thienopyrimidines and antithrombotics, calcium antagonists, prostaglandins or prostaglandin derivatives (2)” (priority 2000, published 2004).

Row | melting point [°C] | Structure (SMILES)
1 | 218 | COc1ccc(CNc2nc(CCC(=O)O)nc3sc4ccccc4c23)cc1Cl [Example 2, 3-[4-(3-chloro-4-methoxybenzylamino)-benzothieno-[2,3-d]-pyrimidin-2-yl]propionic acid]
2 | 203 to 204 | COC(=O)c1ccc(-c2nc(NCc3ccc(OC)c(Cl)c3)c3c(n2)sc2ccccc23)cc1 [Example 3, methyl 4-[4-(3-chloro-4-methoxybenzylamino)-[1]-benzothieno-[2,3-d]-pyrimidin-2-yl]benzoate]
